{"source": "ChEMBL document CHEMBL4052616", "about": "“Isoniazid derivatives and their anti-tubercular activity” (Eur J Med Chem, 2017)", "system": "Mycobacterium tuberculosis", "assay": "Antimycobacterial activity against human resistant Mycobacterium tuberculosis measured after six weeks", "type": "functional"}
{"smiles": "C=CCN1C(=O)/C(=N\\NC(=O)c2ccncc2)c2ccccc21", "values": [{"measurement": "MIC", "result": "2.7 to 3.5", "unit": "µg/mL"}]}
{"smiles": "O=C(N/N=C1\\C(=O)N(Cc2ccccc2)c2ccccc21)c1ccncc1", "values": [{"measurement": "MIC", "result": "2.7 to 3.5", "unit": "µg/mL"}]}
